Measured values from ChEMBL document CHEMBL4002573, “New insights into the SAR and drug combination synergy of 2-(quinolin-4-yloxy)acetamides against Mycobacterium tuberculosis” (Eur J Med Chem, 2017).
≈ marks a conversion by molar mass, not a printed value.

Tests used:
[1] = test system: Mycobacterium tuberculosis; test: microbe, parasite or virus in culture; conditions: H37Rv, 168 h
Description: Antimycobacterial activity against Mycobacterium tuberculosis H37Rv after 7 days by resazurin reduction microplate assay

[2] = Cytotoxicity against mouse RAW264.7 cells assessed as viability at 10 uM after 72 hrs by MTT assay relative to control; type: cell-based; conditions: read-out: Activity
[3] = Permeability of the compound at 1 uM […] by PAMPA; type: physicochemical; conditions: read-out: permeability
[4] = Half life in human liver S9 fraction at 2 uM by HPLC-MS/MS analysis; type: ADME, tissue-based
[5] = Thermodynamic solubility of the compound in acetate buffer at pH 4 after 24 hrs by HPLC method; type: physicochemical; conditions: read-out: Therm_solubility
[6] = Cytotoxicity against African green monkey Vero cells assessed as viability at 10 uM after 72 hrs by MTT assay relative to control; type: cell-based; conditions: chlorocebus sabaeus, read-out: Activity
[7] = Cytotoxicity against human HepG2 cells assessed as viability at 10 uM after 72 hrs by MTT assay relative to control; type: cell-based; conditions: read-out: Activity
[8] = test system: Mycobacterium tuberculosis; test: Bactericidal activity against Mycobacterium tuberculosis H37Rv infected in mouse RAW264.7 cells assessed as bacterial colony formation at 5 uM after 5 days (reference value: 4.1 to 4.73 log10CU); type: functional
[9] = Kinetic solubility in PBS at pH 7.4; type: physicochemical; conditions: read-out: Kinetic_solubility
[10] = Cytotoxicity against human HaCaT cells assessed as viability at 10 uM after 72 hrs by MTT assay relative to control; type: cell-based; conditions: read-out: Activity
[11] = Cytotoxicity against mouse N9 cells assessed as viability at 10 uM after 72 hrs by MTT assay relative to control; type: cell-based; conditions: read-out: Activity
[12] = test system: Mycobacterium tuberculosis; test: microbe, parasite or virus in culture; conditions: PE-003, 168 h
Description: Antimycobacterial activity against Mycobacterium tuberculosis PE-003 clinical isolate after 7 days by resazurin reduction microplate assay

[13] = Thermodynamic solubility of the compound in 0.1N HCl at pH 1.5 after 24 hrs by HPLC method; type: physicochemical; conditions: read-out: Therm_solubility
[14] = Intrinsic clearance in human liver S9 fraction at 2 uM by HPLC-MS/MS analysis; type: ADME, tissue-based
[15] = Kinetic solubility in water at pH 5.8; type: physicochemical; conditions: read-out: Kinetic_solubility
[16] = test system: Mycobacterium tuberculosis; test: microbe, parasite or virus in culture; conditions: CDCT-4 (1105/09), 168 h
Description: Antimycobacterial activity against Mycobacterium tuberculosis CDCT-4 (1105/09) clinical isolate after 7 days by resazurin reduction microplate assay

In the case of `COc1ccc2nc(C)cc(OCC(=O)N[C@H]3CCCc4ccccc43)c2c1`, the MIC [1] was 1.66 µM.
In the case of `COc1ccccc1NC(=O)COc1cc(C)nc2ccc(Cl)cc12`, the MIC [1] was 1.75 µM.
Compound `COc1ccc2nc(C)c(Cc3ccccc3)c(OCC(=O)Nc3ccccc3OC)c2c1` has an MIC [1] greater than 22.6 µM.
For `CCc1cc(OCC(=O)Nc2ccccc2OC)c2cc(OC)ccc2n1`, the MIC [1] was 0.86 µM.
`COc1ccc2nc(C)cc(OCC(=O)N(c3ccccc3)c3ccccc3)c2c1` gave an MIC [1] greater than 25.1 µM.
Compound `COc1ccc2nc(C)cc(OCC(=O)Nc3ccc(C)c(C)c3)c2c1` has a viability at 72 h, 10 µM [2] of 88%, a Papp at 1 µM [3] of 5.9 ×10⁻⁶ cm/s and a half-life at 2 µM [4] of 14.2 min. For the same compound, the solubility thermodynamic at 24 h [5] was 410 µM (≈ 144 µg/mL), the viability at 72 h, 10 µM [6] was 85% and the viability at 72 h, 10 µM [7] was 71%. It also gave an Activity [8] of 3.35 log10CFU, a solubility kinetic [9] of 10.7 µM (≈ 3.75 µg/mL) and a viability at 72 h, 10 µM [10] of 94%. For the same compound, the viability at 72 h, 10 µM [11] was 105%, the MIC [12] was 0.04 µM (≈ 0.014 µg/mL) and the solubility thermodynamic at 24 h [13] was 80 µM (≈ 28 µg/mL). It also gave a CLhep predicted at 2 µM [14] of 16.2 mL/min/kg, a solubility kinetic [15] of 10.4 µM (≈ 3.64 µg/mL) and an MIC [1] of 0.11 µM. It also gave an MIC [16] of 0.11 µM (≈ 0.0385 µg/mL).
In the case of `CCc1ccc(NC(=O)COc2cc(C)nc3ccc(OC)cc23)cc1`, the viability at 72 h, 10 µM [2] was 91%, the half-life at 2 µM [4] was 12.8 min and the solubility thermodynamic at 24 h [5] was 430 µM (≈ 151 µg/mL). The viability at 72 h, 10 µM [6] was 80%, the viability at 72 h, 10 µM [7] was 75% and the Activity [8] was 2.81 log10CFU. It also gave a solubility kinetic [9] of 3.8 µM (≈ 1.33 µg/mL), a viability at 72 h, 10 µM [10] of 96% and a viability at 72 h, 10 µM [11] of 112%. The MIC [12] was 0.006 µM (≈ 0.0021 µg/mL), the solubility thermodynamic at 24 h [13] was 790 µM (≈ 277 µg/mL) and the CLhep predicted at 2 µM [14] was 16.6 mL/min/kg. The solubility kinetic [15] was 5.2 µM (≈ 1.82 µg/mL), the MIC [1] was 0.06 µM and the MIC [16] was less than 0.06 µM.
Compound `COc1ccc2nc(C)cc(OCC(=O)Nc3ccc4c(c3)CCC4)c2c1` has a viability at 72 h, 10 µM [2] of 88%, a Papp at 1 µM [3] of 13.1 ×10⁻⁶ cm/s and a half-life at 2 µM [4] of 11.7 min. It also gave a solubility thermodynamic at 24 h [5] of 120 µM (≈ 43.5 µg/mL), a viability at 72 h, 10 µM [6] of 97% and a viability at 72 h, 10 µM [7] of 95%. It also gave an Activity [8] of 3.54 log10CFU, a solubility kinetic [9] of 2.8 µM (≈ 1.01 µg/mL) and a viability at 72 h, 10 µM [10] of 99%. For the same compound, the viability at 72 h, 10 µM [11] was 111%, the MIC [12] was 0.005 µM (≈ 0.00181 µg/mL) and the solubility thermodynamic at 24 h [13] was 240 µM (≈ 87 µg/mL). It also gave a CLhep predicted at 2 µM [14] of 16.9 mL/min/kg, a solubility kinetic [15] of 2.8 µM (≈ 1.01 µg/mL) and an MIC [1] of 0.05 µM. It also gave an MIC [16] of less than 0.05 µM.
For `COc1ccc2nc(C)cc(OCc3ccc4ccccc4c3)c2c1`, the MIC [1] was 1.9 µM.
Work on `COc1ccc2nc(C)cc(OCC(=O)Nc3cccc4c3CCCC4)c2c1` yielded an MIC [1] of 0.83 µM.
In the case of `CC[C@@H](CO)NCCN[C@@H](CC)CO` [ETHAMBUTOL], the MIC [1] was 2.5 to 5 µg/mL.
`CCc1cc(C(N)=S)ccn1` [ETHIONAMIDE] gave an MIC [12] of 61.2 µM (≈ 10.2 µg/mL), an MIC [1] of 2.5 µg/mL and an MIC [16] of 11.3 µM (≈ 1.88 µg/mL).
With `NNC(=O)c1ccncc1` [ISONIAZID] the Activity [8] was 2.44 log10CFU, the MIC [12] was greater than 70 µM and the MIC [1] was 0.16 to 1.46 µM. For the same compound, the MIC [16] was greater than 70 µM.
With `COc1c(N2C[C@@H]3CCCN[C@@H]3C2)c(F)cc2c(=O)c(C(=O)O)cn(C3CC3)c12` [MOXIFLOXACIN] the MIC [1] was 0.075 µg/mL.
With `CO[C@H]1/C=C/O[C@@]2(C)Oc3c(C)c(O)c4c(O)c(c(/C=N/N5CCN(C)CC5)c(O)c4c3C2=O)NC(=O)/C(C)=C\C=C\[C@H](C)[C@H](O)[C@@H](C)[C@@H](O)[C@@H](C)[C@H](OC(C)=O)[C@@H]1C` [RIFAMPIN] the Activity [8] was 2.44 log10CFU, the MIC [1] was 0.038 µg/mL and the MIC [16] was greater than 100 µM.
`CN[C@@H]1[C@H](O[C@H]2[C@H](O[C@H]3[C@H](O)[C@@H](O)[C@H](N=C(N)N)[C@@H](O)[C@@H]3N=C(N)N)O[C@@H](C)[C@]2(O)C=O)O[C@@H](CO)[C@H](O)[C@H]1O` [STREPTOMYCIN] showed an MIC [1] of 0.31 µg/mL.
